Patent publication US20150203498A1, “INHIBITORS OF PHOSPHODIESTERASE 10 ENZYME” (Janssen Pharmaceutica NV, priority 2012, published 2015)
Several values for one entry are separate records, joined by “and”; a condition that tells them apart may be missing. Equal entries are not always repeated. Where two headings read alike, the source gives them in different places.

How the values were obtained:
[1] = molecular target: T1, hPDE10A2 (Homo sapiens, UniProt Q9Y233); experiment: In vitro assay PDE10A, human recombinant enzyme (SPA, 3H-cAMP); format: biochemical; settings: -log IC50 expressed in mol/L; 60 nM cAMP; read-out: PDE10A2 pIC50 - human enzyme (converted)
T1 construct: made in house; host or cells: Sf9 insect cells (baculovirus)
T1 sequence (Q9Y233 267-1055): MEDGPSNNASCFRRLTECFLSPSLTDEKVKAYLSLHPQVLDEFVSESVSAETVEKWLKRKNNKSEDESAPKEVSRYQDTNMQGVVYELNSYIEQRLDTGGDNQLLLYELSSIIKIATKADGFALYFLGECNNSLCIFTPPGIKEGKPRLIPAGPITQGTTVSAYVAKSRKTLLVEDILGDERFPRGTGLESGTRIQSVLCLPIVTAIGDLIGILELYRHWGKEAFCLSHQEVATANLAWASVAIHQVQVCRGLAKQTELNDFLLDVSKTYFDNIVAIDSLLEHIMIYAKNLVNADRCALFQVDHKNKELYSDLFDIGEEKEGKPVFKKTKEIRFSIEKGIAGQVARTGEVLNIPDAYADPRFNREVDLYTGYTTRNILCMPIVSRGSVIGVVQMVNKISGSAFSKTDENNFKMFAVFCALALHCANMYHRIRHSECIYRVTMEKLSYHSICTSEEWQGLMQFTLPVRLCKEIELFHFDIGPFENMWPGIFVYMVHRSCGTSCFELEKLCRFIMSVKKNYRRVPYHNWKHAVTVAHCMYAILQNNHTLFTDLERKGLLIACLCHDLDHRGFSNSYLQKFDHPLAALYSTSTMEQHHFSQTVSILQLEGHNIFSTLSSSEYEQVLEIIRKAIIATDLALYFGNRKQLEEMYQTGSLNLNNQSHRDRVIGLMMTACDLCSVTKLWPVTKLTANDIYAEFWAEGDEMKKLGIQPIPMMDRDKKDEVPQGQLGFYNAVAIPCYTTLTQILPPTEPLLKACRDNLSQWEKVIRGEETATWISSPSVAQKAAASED
Procedure: (§1) Human or rat recombinant PDE10A (hPDE10A2 or rPDE10A2) was expressed in Sf9 cells using a recombinant hPDE10A or rPDE10A baculovirus construct. Cells were harvested after 48 h of infection and the hPDE10A or rPDE10A protein was purified by metal chelate chromatography on Ni-sepharose 6FF. Tested compounds were dissolved and diluted in 100% DMSO to a concentration 100 fold of the final concentration in the assay. Compound dilutions (0.4 μl) were added in 384 well plates to 20 μl of incubation buffer (50 mM Tris pH 7.8, 8.3 mM MgCl2, 1.7 mM EGTA). 10 μl of hPDE10A or rPDE10A enzyme in incubation buffer was added and the reaction was started by addition of 10 μl substrate to a final concentration of 60 nM cAMP and 0.008 μCi ^3H-cAMP. The reaction was incubated for 60 min. at RT. After incubation, the reaction was stopped with 20 μl of stop solution consisting of 17.8 mg/ml PDE SPA (scintillation proximity assay) beads. After sedimentation of the beads during 30 min. the radioactivity was measured in a Perkin Elmer Topcount scintillation counter and results were expressed as cpm. For blanc values the enzyme was omitted from the reaction and replaced by incubation buffer. Control values were obtained by addition of a final concentration of 1% DMSO instead of compound. A best fit curve was fitted by a minimum sum of squares method to the plot of % of control value substracted with blanc value versus compound concentration and the half maximal inhibitory concentration (IC50) value was derived from this curve.

[2] = molecular target: T2, rPDE10A2 (Rattus norvegicus, UniProt Q9QYJ6); experiment: In vitro assay PDE10A, rat recombinant enzyme (SPA, 3H-cAMP); format: biochemical; settings: -log IC50 expressed in mol/L; 60 nM cAMP; read-out: PDE10A2 pIC50 - rat enzyme (converted)
T2 construct: made in house; host or cells: Sf9 insect cells (baculovirus)
T2 sequence (Q9QYJ6 1-794): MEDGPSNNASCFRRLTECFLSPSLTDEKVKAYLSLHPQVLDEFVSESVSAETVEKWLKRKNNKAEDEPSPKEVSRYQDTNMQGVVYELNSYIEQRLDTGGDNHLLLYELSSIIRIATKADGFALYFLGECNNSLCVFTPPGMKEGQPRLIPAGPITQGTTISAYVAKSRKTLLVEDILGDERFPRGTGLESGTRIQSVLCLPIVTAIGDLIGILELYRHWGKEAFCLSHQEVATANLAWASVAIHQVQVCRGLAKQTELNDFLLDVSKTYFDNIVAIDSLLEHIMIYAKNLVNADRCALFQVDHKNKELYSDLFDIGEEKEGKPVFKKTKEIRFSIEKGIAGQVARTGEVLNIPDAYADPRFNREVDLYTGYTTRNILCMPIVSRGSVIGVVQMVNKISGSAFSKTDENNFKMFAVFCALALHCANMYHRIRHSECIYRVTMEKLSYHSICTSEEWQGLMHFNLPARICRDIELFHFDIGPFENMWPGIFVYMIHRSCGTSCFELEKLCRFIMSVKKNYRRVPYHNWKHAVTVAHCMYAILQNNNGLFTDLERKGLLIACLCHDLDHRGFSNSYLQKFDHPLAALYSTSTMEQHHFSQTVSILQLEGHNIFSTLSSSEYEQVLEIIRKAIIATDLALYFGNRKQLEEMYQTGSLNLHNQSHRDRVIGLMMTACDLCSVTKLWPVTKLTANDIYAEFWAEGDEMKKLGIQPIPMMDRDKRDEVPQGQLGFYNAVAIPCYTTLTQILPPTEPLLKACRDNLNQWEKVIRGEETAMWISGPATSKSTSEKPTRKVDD
Procedure: as §1

[3] = test system: apomorphine-induced stereotypy; experiment: Apomorphine-induced stereotypy in rats (APO); format: in vivo, rat; settings: apomorphine 1.0 mg/kg i.v.; for ED50: Rattus norvegicus
Procedure: Apomorphine (1.0 mg/kg, i.v.)-induced stereotypy (compulsive sniffing, licking, chewing) was scored every 5 min. over the first hour after injection of apomorphine, following a 1 hour interval pre-treatment with the test compound. The score system was: (3) pronounced, (2) moderate, (1) slight, and (0) absent. Criteria for drug-induced inhibition of stereotypy: fewer than 6 scores of 3 (0.16% false positives), fewer than 6 scores of 2 (0.0% false positives), or fewer than 7 scores of 1 (0.81% false positives).

[4] = Plasma protein binding by equilibrium dialysis; format: in vitro ADME, human; settings: male, human, plasma, pH 7.17, human plasma
Procedure: (§2) The plasma protein binding and blood distribution was investigated in healthy human subjects. Fresh blood was collected and centrifugated (approximately 1700 g for 10 min, room temperature, Hettich Rotixa AP centrifuge). The experiment was started within 4 hours after blood collection.
(§3) Individual blank plasma samples from three healthy male subjects, tested in duplicate, were fortified with compound la or compound lb at different concentrations (see Table 5). Plasma samples were spiked with 10 μl spike solution per ml of sample (1% ethanol (v/v)).
(§4) Fortified plasma was subjected to equilibrium dialysis (ED), for 4 h against a 0.067 M phosphate buffer, pH 7.17 at 37° C. in a Dianorm system with identical macro-1 Teflon cells and Spectra/Por® RC 2 dialysis membranes (MW cut-off 12-14 kDa). After dialysis, the contents of the two compartments of the dialysis cells were collected separately. The buffer samples were diluted with 1 mL of 5% Bovine Serum Albumin in a Phosphate buffer 0.05M, pH 7.5.
(§5) The plasma samples (before and after equilibrium dialysis) and buffer samples were analysed for compound la or compound lb using a qualified chiral LC-MS/MS assay on a API4000 mass spectrometer (Applied Biosystems).
(§6) The fraction of the unbound test compound (fu) was calculated as the ratio of the unbound concentration (Cu) in the buffer compartment to the total concentration (CED) in the protein compartment of the dialysis cells. The percentage of the free test compound was calculated as […]

[5] = test system: plasma proteins; experiment: Plasma protein binding by equilibrium dialysis; format: in vitro ADME, human; settings: human plasma; for Free fraction, Average per subject: average of duplicate per subject; for Free fraction: single determinations, subjects 1-3 in duplicate, equilibrium dialysis 4 h, 37° C.; for Concentration dependency in the plasma protein binding: within the concentration range tested
Procedure: as §2, §3, §4, §5, §6

[6] = Pharmacokinetics of oral microdose in healthy subjects; format: in vivo, human; settings: single oral dose of 100 μg
Excerpt: The pharmacokinetics of an oral microdose of compound 1 according to the invention and compound 1 of WO2011/051342 was studied by a single-dose, open-label, parallel-group, randomized pharmacokinetic (PK) study. Each treatment group consisted of 6 subjects (healthy men between 18 to 55 years with a body mass index (BMI) between 18 and 30 kg/m^2 (inclusive) and body weight not less than 50 kg). Subjects were randomized to receive either compound 1 of WO2011/051342 or compound 1 (according to the invention) treatment.
Compound 1 of WO2011/051342 and compound 1 according to the invention were supplied as a 0.1 mg/mL oral solution containing HP-β-CD and citric acid in purified water. The pH of the solution was adjusted to pH 2.0 by the use of hydrochloric acid. Subjects were admitted to the investigational site on Day -1. Following an overnight fast of at least 10 hours, subjects received a single oral aqueous solution of […] of compound 1 of WO2011/051342 or compound 1 according to the invention, with 240 mL of noncarbonated water as per randomization in the morning of Day 1 between 7:00 AM and 10:30 AM. Drinks were not allowed from 1 hour prior until 1 hour after drug administration. Blood samples were collected at specified time points to measure compound 1 of WO2011/051342 or compound 1 (according to the invention) plasma concentrations. Subjects were discharged on Day 3 after collecting the 48-hour PK sample. Subjects returned to the clinical unit on the morning of Day 4 for the 72-hour PK blood sampling.
Venous blood samples of 6 mL for the measurement of compound 1 of WO2011/051342 or compound 1 according to the invention plasma concentrations were collected at specified time points.
Plasma samples were analyzed to determine concentrations of compound 1 of WO2011/051342 or compound 1 according to the invention using a qualified liquid chromatography/mass spectrometry/mass spectrometry (LC-MS/MS) method.
Pharmacokinetic analyses were performed for all subjects' data who received a dose of compound 1 of WO2011/051342 and compound 1 according to the invention. Plasma concentrations versus time profiles were plotted for each subject. Mean concentration versus time profiles were plotted for each compound, based on planned blood sampling times. Descriptive statistics, including arithmetic mean, standard deviation, CV, geometric mean, median, minimum, and maximum were calculated for the plasma concentrations at each sampling time and for all PK parameters of compound 1 of WO2011/051342 and compound 1 according to the invention.

[7] = iv, 1 hour pre-treatment with test compound, dose at which 50% of animals show the effect
[8] = average of duplicate per subject, read-out: Free fraction, Average per subject
[9] = single determinations, subjects 1-3 in duplicate, equilibrium dialysis 4 h, 37° C., read-out: Free fraction
[10] = male, human, plasma, 100 ug, fasted, mean

Row | IC50 [1] | IC50 [2] | Average percentage of free compound in plasma ([5]; 0.1 μg/ml) | Free fraction, Average per subject ([5]; 0.1 μg/ml) | Average percentage of free compound in plasma ([5]; 13 μg/ml) | Free fraction, Average per subject ([5]; 13 μg/ml) | Concentration dependency in the plasma protein binding [5] | melting point | SMILES | ED50 [3, 7] | Free fraction ([5]; 0.1 μg/ml) | Free fraction ([5]; 13 μg/ml) | further results
1 | 75.9 nM | 47.9 nM | 48.3% | 48.5% and 48.3% | 45.5% | 45.4% and 46.2% | No relevant concentration dependency | 134.9 °C | COCC(O)c1ccc(-c2c(C)nc3c(N4CCOCC4)ccnn23)cn1 (single isomer, unassigned) [Compound 1a] | 1.2 mg/kg | 50.1% and 47.6% and 48.9% and 47.3% | 46.1% and 46.5% and 46.0% and 43.9% and 45.6% | fraction unbound at 4 h, 0.1 μg/ml [4, 8]: 0.481; fraction unbound at 4 h, 0.1 μg/ml [4, 9]: 0.468; fraction unbound at 4 h, 13 μg/ml [4, 8]: 0.448; fraction unbound at 4 h, 13 μg/ml [4, 9]: 0.446; fraction unbound at 4 h ([4]; 0.1 and 13 μg/ml pooled, three subjects in duplicate, read-out: Free fraction, Average (S.D.) (n = 12)): 0.469
2 | 60.3 nM | 50.1 nM | 53.4% | 54.0% and 56.3% and 50.0% | 50.9% | 52.6% and 49.6% and 50.5% | No relevant concentration dependency | 135.7 °C | COCC(O)c1ccc(-c2c(C)nc3c(N4CCOCC4)ccnn23)cn1 (single isomer, unassigned) [Compound 1b] | – | 55.2% and 57.4% and 46.9% and 53.1% and 54.9% | 52.7% and 46.6% and 51.4% and 49.7% and 51.9% and 53.3% | APO ED50 ([3]; 1 hour pre-treatment with test compound, dose at which 50% of animals show the effect): 1.2 mg/kg; Free fraction, Average (S.D.) (n = 12) ([5]; 0.1 and 13 μg/ml pooled, three subjects in duplicate): 52.2 (3.2) %
3 | 64.6 nM | 55 nM | – | – | – | – | – | 137.2 °C | COCC(O)c1ccc(-c2c(C)nc3c(N4CCOCC4)ccnn23)cn1 (stereo not drawn) [Compound 1, 2-Methoxy-1-[5-(2-methyl-8-morpholin-4-ylimidazo[1,2-b]pyridazin-3-yl)pyridin-2-yl]ethanol] | – | – | – | ED50 ([3]; compound dosed orally, 1 hour pre-treatment): 1 mg/kg; Tmax ([6]; male, human, plasma, 100 ug, fasted, Median (Min-Max)): 0.64 h; AUC(0-inf) [6, 10]: 2.64 ng·h/mL; AUC(0-t) [6, 10]: 2.61 ng·h/mL; Cmax [6, 10]: 0.758 ng/mL; Vd/F [6, 10]: 333 ± 117 L; half-life [6, 10]: 5.7 h; Cl/F, fold lower compared to compound 1 of WO2011/051342 [6]: approximately 3.8 fold; Vd/F, fold lower compared to compound 1 of WO2011/051342 [6]: approximately 3.5 fold; CL/F ([6]; fasted, mean): 47.9 ± 24.6 L/h and 47.9 L/h; λz ([6]; fasted, mean): 0.148 h⁻¹
4 | 263 nM | – | – | – | – | – | – | 106.9 °C | COCC(O)c1ccc(-c2c(C)nc3c(N4CCOCC4)nccn23)cn1 (stereo not drawn) [Compound 2, 2-Methoxy-1-[5-(2-methyl-8-morpholin-4-ylimidazo[1,2-a]pyrazin-3-yl)pyridin-2-yl]ethanol] | 0.31 mg/kg | – | – | –
5 | 27.5 nM | – | – | – | – | – | – | 189.2 °C | Cc1nc2c(N3CCOCC3)ccnn2c1-c1ccc(C2(O)CCOCC2)nc1 [Compound 3, 4-[5-(2-Methyl-8-morpholin-4-ylimidazo[1,2-b]pyridazin-3-yl)pyridin-2-yl]tetrahydro-2H-pyran-4-ol] | 0.31 mg/kg | – | – | –
6 | 112 nM | – | – | – | – | – | – | 181.6 °C | Cc1nc2c(N3CCOCC3)nccn2c1-c1ccc(C2(O)CCOCC2)nc1 [Compound 4, 4-[5-(2-Methyl-8-morpholin-4-ylimidazo[1,2-a]pyrazin-3-yl)pyridin-2-yl]tetrahydro-2H-pyran-4-ol] | 0.31 mg/kg | – | – | –
